The values that follow are results of earlier work, collected in patent US20030060503A1, “Nutritional supplements for mature pets” (Juvenon, Inc., priority 2000, published 2003).

Data set [1] concerns carnitine-acetyl-carnitine exchange across the inner mitochondrial membrane.
The conditions of data set [2]: daily supplements of up to 200 mg for 6-12 months and 100 mg daily for up to 6 y.
Data set [3] relates to programmed cell death, or apoptosis. Particulars: through its action in the mitochondria.
The next data set deals with aged rats. The following applies: supplementation.
The next data set concerns oxidant production. Particulars: carnitine supplementation.
The next data set concerns skeletal muscle. The following applies: older individuals (40-73), 20 g/day, one week.

Where two headings read alike, the source gives them in different places.

Take `C[N+](C)(C)C[C@H](O)CC(=O)[O-]` [L-carnitine]: the “age-related decrease of carnitine-acetyl-carnitine exchange activity” value in [1] is given as “slow or reverse this age-related dysfunction”.

Regarding `COC1=C(OC)C(=O)C(C/C=C(\C)CC/C=C(\C)CC/C=C(\C)CC/C=C(\C)CC/C=C(\C)CC/C=C(\C)CC/C=C(\C)CC/C=C(\C)CC/C=C(\C)CCC=C(C)C)=C(C)C1=O` [Q10, coenzyme Q10], in data set [2], the adverse effects entry is given as “No important adverse effects”. Moreover, in the data set on senescent myocardium, the “recovery of function in older hearts” value is “corrected the age-specific diminished recovery of function in older hearts”. The “tolerance of senescent myocardium to aerobic and ischemic stress” value with senescent myocardium (human atrial tissue and rats) is “improves the tolerance of the senescent myocardium to aerobic and ischemic stress”. Besides, the “programmed cell death (apoptosis)” value in data set [3] is reported as “appears to block programmed cell death”.

With `O=C(O)CCCC[C@@H]1CCSS1` [R-α-lipoic acid], the ambulatory activity entry with aged rats (aged rats) was “triple the ambulatory activity of aged rats”. Further, in the data set with aged rats, the “age-related increase in oxidants” value is recorded as “significantly lower the age-related increase in oxidants”; the “glutathione and ascorbic acid levels” value was “restore glutathione and ascorbic acid levels to youthful levels”; the mitochondrial membrane potential result is recorded as “restore the age-related decline in mitochondrial membrane potential”; the oxygen consumption result was “reverse the age-related decrease in oxygen consumption”.

For the molecule `C[N+](C)(C)CC(O)CC(=O)[O-]` (centres unmarked) [carnitine], in the data set on oxidant production, the cell antioxidants result is listed as “decreased cell antioxidants markedly” and the “increase in oxidant production” value is reported as 30%.

Turning to `CN(CC(=O)O)C(=N)N` [creatine], in the data set on skeletal muscle, the “skeletal muscle strength and endurance” value was “increased skeletal muscle strength and endurance”. Also, the safety result (1.5 g-25 g/day for at least a year) is “safe”. Further, the adverse effects result (athletes, doses up to 75 grams a day for years) is reported as “without known adverse effects, aside from weight gain”.

For the molecule `COc1c(O)c(C)c(C/C=C(\C)CC/C=C(\C)CC/C=C(\C)CC/C=C(\C)CC/C=C(\C)CC/C=C(\C)CC/C=C(\C)CC/C=C(\C)CC/C=C(\C)CCC=C(C)C)c(O)c1OC` [ubiquinol-10], in the data set on human lymphocytes, the “oxidative damage to DNA” value was “appears to protect human lymphocytes from oxidative damage to DNA”.

For acyl-L-carnitine, the “age-related decrease of carnitine-acetyl-carnitine exchange activity” value in [1] is reported as “slow or reverse this age-related dysfunction”.
